Consider five compounds from ChEMBL document CHEMBL1145918, “Synthesis, comparative photosensitizing efficacy, human serum albumin (site II) binding ability, and intracellular localization characteristics of novel benzobacteriochlorins derived from vic-dihydroxybacteriochlorins” (J Med Chem, 2003).

The structures appear in SMILES notation.

In this data set the target is Albumin (Homo sapiens, UniProt P02768). Put plainly: Compound was tested for its binding ability to site II of Human serum albumin (HSA) expressed as binding constant.
Sequence of Albumin (P02768 whole entry): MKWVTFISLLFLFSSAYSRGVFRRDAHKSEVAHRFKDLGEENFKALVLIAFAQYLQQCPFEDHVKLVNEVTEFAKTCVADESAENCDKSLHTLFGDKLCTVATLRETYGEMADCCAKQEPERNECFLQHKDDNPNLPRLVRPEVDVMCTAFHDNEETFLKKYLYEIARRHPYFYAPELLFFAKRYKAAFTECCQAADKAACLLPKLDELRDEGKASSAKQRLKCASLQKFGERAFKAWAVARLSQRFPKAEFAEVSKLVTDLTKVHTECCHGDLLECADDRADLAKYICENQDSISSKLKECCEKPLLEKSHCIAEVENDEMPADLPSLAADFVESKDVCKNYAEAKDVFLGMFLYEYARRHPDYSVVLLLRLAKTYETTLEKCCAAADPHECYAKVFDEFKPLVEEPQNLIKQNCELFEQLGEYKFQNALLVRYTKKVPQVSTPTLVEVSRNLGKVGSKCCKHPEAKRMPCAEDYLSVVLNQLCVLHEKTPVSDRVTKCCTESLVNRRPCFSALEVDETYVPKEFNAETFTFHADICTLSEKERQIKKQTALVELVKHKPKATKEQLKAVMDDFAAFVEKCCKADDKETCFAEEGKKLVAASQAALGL
Take `CCc1c(C)c2cc3nc(c(C(=O)OC)c4nc(cc5[nH]c(cc1[nH]2)C1(C)C5=CC=C(C(=O)OC)C1C(=O)OC)C(C)=C4C(=O)OC)[C@@H](CCC(=O)OC)[C@@H]3C` (stereo not given in full): the K was 14400000 M⁻¹.

In turn, `CCc1c(C)c2cc3nc(c4c5nc(cc6[nH]c(cc1[nH]2)C1(C)C6=CC=C(C(=O)OC)C1C(=O)OC)C(C)=C5C(=O)C4)[C@@H](CCC(=O)OC)[C@@H]3C` (stereo not given in full) came in with a K of 10600000 M⁻¹.

`CCCCCCN1C(=O)C2=C(C)c3cc4[nH]c(cc5[nH]c(cc6nc(c(c2n3)C1=O)[C@@H](CCC(=O)OC)[C@@H]6C)c(C)c5CC)C1(C)C4=CC=C(C(=O)OC)C1C(=O)OC` (stereo not given in full): the K was found to be 16100000 M⁻¹.

`CCc1c(C)c2cc3nc(c4c5nc(cc6[nH]c(cc1[nH]2)C1(C)C6=CC=C(C(=O)OC)C1C(=O)OC)C(C)=C5C(=O)N(Cc1cc(C(F)(F)F)cc(C(F)(F)F)c1)C4=O)[C@@H](CCC(=O)OC)[C@@H]3C` (stereo not given in full) had a K of 16000000 M⁻¹.

`CCc1c(C)c2cc3nc(c(CC(=O)OC)c4nc(cc5[nH]c(cc1[nH]2)C1(C)C5=CC=C(C(=O)OC)C1C(=O)OC)C(C)=C4C(=O)OC)[C@@H](CCC(=O)OC)[C@@H]3C` (stereo not given in full) had a K of 17500000 M⁻¹.
